Assay results from the supplement of paper PMC9262897, “Low-cost anti-mycobacterial drug discovery using engineered E. coli” (Nature Communications, 2022).

How the values were obtained:
Efflux+ = test: growth (OD600 after 24 h); higher = more growth
Protocol: (§1)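 E. coli BW25113 ΔaraC (Efflux+) or efflux-pump deletion strains (ΔtolC ΔentC, ΔemrE, ΔmdtI, ΔyeeO, ΔmdtK, ΔmdtM) diluted 1:100 in M9-based medium with a drug dilution series. Growth is read as OD600 after 24 h; 3 biological replicates.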

∆emrE = test: growth (OD600 after 24 h); higher = more growth
Protocol: as §1

∆mdtI = test: growth (OD600 after 24 h); higher = more growth
Protocol: as §1

∆mdtK = test: growth (OD600 after 24 h); higher = more growth
Protocol: as §1

∆mdtM = test: growth (OD600 after 24 h); higher = more growth
Protocol: as §1

∆tolC ∆entC = test: growth (OD600 after 24 h); higher = more growth
Protocol: as §1

∆yeeO = test: growth (OD600 after 24 h); higher = more growth
Protocol: as §1

E. coli TESEC Mtb Alr = test: growth (OD600 after 10 h, mean); higher = more growth;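 further: E. coli lacking its native Alr, complemented by codon-optimized Mtb Alr under a feedback-controlled arabinose-inducible plasmid circuit, grown in defined medium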
Protocol: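 TESEC Mtb Alr E. coli grown in a two-dimensional dilution series of drug (µM) and arabinose (12 to 1e8 nM). Growth is read as OD600 after 10 h; values are means of 3 biological replicates.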

CCOC(=O)[C@H](CCc1ccccc1)N[C@H]1CCc2ccccc2N(CC(=O)O)C1=O [Benazepril]
growth
Conditions | Efflux+ | ∆emrE | ∆mdtI | ∆mdtK | ∆mdtM | ∆tolC ∆entC | ∆yeeO
drug 62.5 µM | 1.02 | 1.18 | 0.992 | 0.937 | 0.822 | 0.756 | 0.887
drug 125 µM | 0.974 | 1.16 | 0.978 | 1.04 | 0.832 | 0.791 | 0.894
drug 250 µM | 0.962 | 1.09 | 0.979 | 1 | 0.807 | 0.8136 | 0.895
drug 500 µM | 0.969 | 1.08 | 0.983 | 1.01 | 0.827 | 0.8286 | 0.901
drug 1000 µM | 0.977 | 1.065 | 1 | 0.974 | 0.835 | 0.0672 | 0.91
drug 2000 µM | 1 | 1.14 | 1.009 | 0.856 | 0.833 | 0.0535 | 0.882

growth, E. coli TESEC Mtb Alr
Conditions | drug 15.62 µM | drug 31.25 µM
arabinose 12 nM | 0.354 | 0.343
arabinose 24 nM | 0.338 | 0.339
arabinose 48 nM | 0.334 | 0.332
arabinose 95 nM | 0.343 | 0.334
arabinose 191 nM | 0.341 | 0.34
arabinose 381 nM | 0.338 | –
arabinose 763 nM | 0.337 | –
arabinose 1526 nM | 0.333 | –
arabinose 3052 nM | 0.338 | –
arabinose 6104 nM | 0.337 | –
arabinose 12207 nM | 0.353 | –
arabinose 24414 nM | 0.352 | –
arabinose 48828 nM | 0.367 | –
arabinose 97656 nM | 0.451 | –
arabinose 195312 nM | 0.429 | –
arabinose 390625 nM | 0.344 | –
arabinose 781250 nM | 0.311 | –
arabinose 1562500 nM | 0.295 | –
arabinose 3125000 nM | 0.274 | –
arabinose 6250000 nM | 0.267 | –
arabinose 12500000 nM | 0.263 | –
arabinose 25000000 nM | 0.259 | –
arabinose 50000000 nM | 0.246 | –
arabinose 100000000 nM | 0.239 | –
